Some test systems named below: CCRF-CEM leukemia; COLO 205 colon; DU-145 prostate; HCT-116 colon; HCT-15 colon; HOP-92 NSCLC; HS 578T breast; MOLT-4 leukemia; OVCAR-5 ovarian; SF-295 CNS; SK-MEL-5 melanoma; SW-620 colon; T-47D breast; U251 CNS.
What all share (test): growth of human tumour cells (NCI), 48 h

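How tested: cells in 96-well plates exposed to compound for 48 hours at five concentrations. TGI: total growth inhibition.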 Where a SMILES comes first, the peptide text is derived from it. The star is where a group is joined. Boc = CC(C)(C)OC(=O)*

For the compound `COCOC1/C=C/CCCC#C[C@H](C)C(=O)CC1` (some centres not stated), the TGI with CCRF-CEM leukemia amounted to 8.46 µM; in the assay on COLO 205 colon, 17.6 µM; in the assay with DU-145 prostate, 28 µM; with HCT-116 colon, 5.99 µM; in the assay on HCT-15 colon it was 24 µM; in the assay on HOP-92 NSCLC it was 19.2 µM. The TGI in the assay with HS 578T breast is 46.4 µM; with MOLT-4 leukemia it was more than 29.4 µM; with OVCAR-5 ovarian, 20.1 µM; in the assay with SF-295 CNS, 31.7 µM; in the assay with SK-MEL-5 melanoma it was 21.7 µM; in the assay on SW-620 colon, 5.64 µM. Besides, the figures for the TGI in the assay on T-47D breast and in the assay on U251 CNS were 31.3 µM and 24.8 µM, respectively.
As for `C=C(C)C12CC(COC(=O)c3ccccc3)C34OC5(OC1C3C1OC1(CO)C(O)C1(O)C(OC(=O)c3ccccc3)C(C)C(C(C)CCCCCCC5O)C14)O2` (configuration not stated), the TGI was more than 100 µM with CCRF-CEM leukemia; 24.4 µM in the assay on COLO 205 colon; more than 100 µM in the assay on DU-145 prostate; more than 100 µM in the assay with HCT-116 colon; more than 100 µM with HCT-15 colon; more than 100 µM in the assay with HOP-92 NSCLC. In addition, the TGI with HS 578T breast is more than 100 µM; with OVCAR-5 ovarian, more than 100 µM; in the assay with SF-295 CNS it was more than 100 µM; with SK-MEL-5 melanoma, more than 100 µM; in the assay on T-47D breast, more than 100 µM; with U251 CNS it was more than 74.6 µM.
For the compound `COc1ccccc1Nc1nc(N)nc(N)c1N=O`, the TGI with CCRF-CEM leukemia, in the assay on COLO 205 colon, in the assay with DU-145 prostate, in the assay with HCT-116 colon, in the assay on HCT-15 colon and in the assay on HOP-92 NSCLC was more than 100 µM each time. The TGI in the assay on HS 578T breast, in the assay on MOLT-4 leukemia, in the assay on OVCAR-5 ovarian, in the assay with SF-295 CNS, in the assay on SK-MEL-5 melanoma and with SW-620 colon was more than 100 µM each time. Moreover, the TGI in the assay with T-47D breast and in the assay with U251 CNS was more than 100 µM throughout.
Turning to `Cc1ccc([C@@H]2[C@@H](C(=O)c3ccccn3)[C@H](c3ccc(C)cc3)C[C@](O)(c3ccccn3)[C@H]2C(=O)c2ccccn2)cc1`, the TGI is 4.43 µM with CCRF-CEM leukemia; more than 100 µM in the assay with COLO 205 colon; more than 100 µM in the assay on DU-145 prostate; more than 100 µM in the assay on HCT-116 colon; more than 100 µM in the assay on HCT-15 colon; more than 100 µM with HOP-92 NSCLC. The TGI was more than 100 µM with HS 578T breast; more than 100 µM in the assay on MOLT-4 leukemia; more than 85.8 µM with OVCAR-5 ovarian; more than 100 µM in the assay on SF-295 CNS; more than 100 µM in the assay on SK-MEL-5 melanoma; more than 100 µM in the assay with SW-620 colon. Further, the TGI with T-47D breast and in the assay with U251 CNS was more than 100 µM each time.
Take `O=C1CCC[C@@H]2NC[C@@H](c3ccc4c(c3)OCO4)[C@H]12`: the TGI in the assay on CCRF-CEM leukemia, in the assay on COLO 205 colon, with DU-145 prostate, in the assay with HCT-116 colon, in the assay with HCT-15 colon and in the assay on HOP-92 NSCLC was more than 25 µM each time. For the same compound, the TGI in the assay on HS 578T breast, in the assay on MOLT-4 leukemia, with OVCAR-5 ovarian, with SF-295 CNS, with SK-MEL-5 melanoma and in the assay on T-47D breast was more than 25 µM throughout. In the assay on U251 CNS, this compound gave a TGI of more than 25 µM.
In the case of `COc1cc(O)c(/C=N/N=C(\N)NO)c(OC)c1`, the TGI in the assay on CCRF-CEM leukemia, with COLO 205 colon, in the assay on DU-145 prostate, in the assay on HCT-116 colon, in the assay with HCT-15 colon and in the assay with HOP-92 NSCLC was more than 10 µM each time. The TGI in the assay with HS 578T breast, with OVCAR-5 ovarian, in the assay with SF-295 CNS, with SK-MEL-5 melanoma, in the assay with SW-620 colon and in the assay with T-47D breast was more than 10 µM throughout. This compound also returned a TGI in the assay with U251 CNS of more than 10 µM.
Turning to `COC(=O)CNC(=O)C(Cc1ccccc1)NC(=O)C(CCSC)NC(=O)C(Cc1ccc(O)cc1)NC(=O)OC(C)(C)C` (configuration not stated) (Boc-YMFG-OMe; configuration not given here), the TGI in the assay with COLO 205 colon was more than 100 µM; in the assay with DU-145 prostate, more than 100 µM; in the assay on HCT-116 colon, more than 100 µM; with HCT-15 colon it was more than 100 µM; in the assay on HOP-92 NSCLC, 74.1 µM; in the assay on HS 578T breast, more than 100 µM. Besides, the TGI with MOLT-4 leukemia is 38.9 µM; with OVCAR-5 ovarian it was more than 100 µM; in the assay with SF-295 CNS it was more than 100 µM; in the assay on SK-MEL-5 melanoma, more than 100 µM; in the assay with SW-620 colon it was more than 100 µM; in the assay on T-47D breast, more than 100 µM. In the assay on U251 CNS, this compound showed a TGI of more than 100 µM.
As to `Cc1nc(-c2ccc([N+](=O)[O-])cc2)cn2c1nc1ccccc12`, the TGI in the assay with CCRF-CEM leukemia, in the assay with COLO 205 colon, in the assay on DU-145 prostate, in the assay with HCT-116 colon, in the assay with HCT-15 colon and in the assay with HOP-92 NSCLC was more than 100 µM each time. Also, the TGI in the assay with HS 578T breast, in the assay on MOLT-4 leukemia, in the assay on OVCAR-5 ovarian, in the assay with SF-295 CNS, with SW-620 colon and in the assay on T-47D breast was more than 100 µM throughout. Besides, the TGI with U251 CNS is more than 100 µM.
For `Cc1c(-c2nc3ccccc3[nH]2)c(=O)n(-c2ccccc2)n1C`, the TGI in the assay with CCRF-CEM leukemia, in the assay on COLO 205 colon, with DU-145 prostate, with HCT-116 colon, in the assay on HCT-15 colon and with HOP-92 NSCLC was more than 100 µM each time. Moreover, the TGI in the assay with HS 578T breast, in the assay with MOLT-4 leukemia, with SF-295 CNS, with SK-MEL-5 melanoma, in the assay with SW-620 colon and with T-47D breast was more than 100 µM throughout. For the same compound, in the assay on U251 CNS, the TGI was more than 100 µM.
As for `c1ccc2c(c1)OC(N1CCCC1)c1cnc(N3CCCC3)nc1-2` (configuration not stated), the TGI in the assay with CCRF-CEM leukemia was 67.3 µM; with COLO 205 colon it was more than 100 µM; with DU-145 prostate, more than 100 µM; with HCT-116 colon it was more than 100 µM; with HCT-15 colon, more than 100 µM; in the assay on HOP-92 NSCLC, 47.3 µM. Moreover, the TGI in the assay on HS 578T breast was 89.7 µM; with MOLT-4 leukemia it was 70.5 µM; in the assay on OVCAR-5 ovarian it was more than 100 µM; in the assay with SF-295 CNS it was 82.1 µM; in the assay on SW-620 colon, more than 100 µM; with T-47D breast, 93.3 µM. The TGI in the assay on U251 CNS is more than 100 µM.

Source of the values: PubChem BioAssay (NCI).
